The subject of test [1] is RAW264.7. The test is described as follows: Antiinflammatory activity in mouse RAW264.7 cells assessed as inhibition of LPS-induced nitric oxide production at 100 uM after 24 hrs by Griess reagent method relative to control. The test is classed as functional, cell-based. For orientation: Griess reagent forms a coloured azo dye with nitrite.
The subject of test [2] is RAW264.7. Description: Antiinflammatory activity in mouse RAW264.7 cells assessed as inhibition of LPS-induced TNFalpha production at 100 uM after 24 hrs by ELISA relative to control. Format: functional, cell-based. Background: ELISA stands for enzyme-linked immunosorbent assay.

SMILES strings stand for the structures. Activity calls are given as the source filed them. The rule behind the calls is not given here.

Turning to `CC(/C=C/[C@@]1(C)[C@H](C)CCC(=O)[C@@H]1C)=C\Cc1c(O)c(Cl)c(C)c(C=O)c1O`, the outcome in the test with RAW264.7 [1] and in the test with RAW264.7 [2] was Active.
Regarding `C/C(=C\Cc1c(O)cc(C)c(C=O)c1O)CC[C@@]1(C)[C@H](C)CCC(=O)[C@@H]1C`, the outcome in the test with RAW264.7 [1] was Active.
Consider `C/C(=C\Cc1c(O)c(Cl)c(C)c(C=O)c1O)CC[C@@]1(C)[C@H](C)CCC(=O)[C@@H]1C`, for which the outcome in the test on RAW264.7 [1] was Active.
Turning to `C/C(=C\Cc1c(O)c(Cl)c(C)c(C=O)c1O)CC/C=C(\C)[C@@H]1CC(=O)C(C)(C)O1`, the outcome with RAW264.7 [1] and in the test with RAW264.7 [2] was Active.

These data come from ChEMBL document CHEMBL1152326, “Anti-inflammatory sesquiterpenoids from a sponge-derived Fungus Acremonium sp” (J Nat Prod, 2009).
